Experimental data as given in patent US12370143B2, “Compound or salt thereof and lipid particles” (FUJIFILM Corporation, priority 2018, dated 2025).

How the values were obtained:
[1] = Particle size of nucleic acid lipid particles (Luc2-siRNA); format: physicochemical; conditions: compound/DSPC/cholesterol/DMG-PEG2000 50/10/38.5/1.5
In short: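 Particle size was read by ELS-Z2 light scattering on nucleic acid lipid particles after dialysis against PBS. These were made by micromixing Luc2-siRNA (19.7 μmol/L, pH 4 acetate) with ethanolic lipids (test lipid/DSPC/cholesterol/DMG-PEG2000 50/10/38.5/1.5, 20 mmol/L) at 3:1 water:oil, siRNA/lipid 339 mol/mol.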

[2] = Encapsulation rate of siRNA in nucleic acid lipid particles (Luc2-siRNA); format: physicochemical; conditions: compound/DSPC/cholesterol/DMG-PEG2000 50/10/38.5/1.5
In short: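 Encapsulation rate was calculated as (total − outer-phase siRNA)/total ×100. Total siRNA was quantified spectrophotometrically after lipid-dissolving ethanol precipitation, and unencapsulated siRNA by RiboGreen in TE (ex 485/em 535 nm). The particles were test lipid/DSPC/cholesterol/DMG-PEG2000 at 50/10/38.5/1.5, formed by microfluidic mixing with Luc2-siRNA at pH 4 and dialyzed against PBS.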

[3] = tested on: DMS273 cells constantly expressing Luc; assay: Target reporter protein (Luc) knockdown in cell, reporter protein assay; format: cell-based; conditions: Homo sapiens, DMS-273; Luc2-siRNA lipid particles using the compound; siRNA 0.1 to 100 nmol/L; concentration at which Luc expression is knocked down to 50%; read-out: IC50
In short: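 Nucleic acid lipid particles added at final 0.1 to 100 nmol/L to DMS273 human SCLC cells stably expressing Luc2, 24 hr exposure then 24 hr further culture after medium change. Luc quantified by Steady Glo luminescence after viable cell count; knockdown efficiency calculated and IC50 taken as concentration giving 50% Luc reduction.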

[4] = tested on: Factor VII (FVII) protein; assay: Measurement of Factor VII (FVII) protein in mouse plasma after FVII-siRNA lipid particles; format: in vivo, C57BL6/J mice; conditions: 0.1 mg/kg caudal vein, plasma 24 hours after administration, PBS group = 100%
In short: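 C57BL6/J mice (n=3) received FVII-siRNA nucleic acid lipid particles at 0.1 mg/kg into the tail vein; controls got PBS. Each value is the percentage of the PBS-group FVII level.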

[5] = Particle size of nucleic acid lipid particles (FVII-siRNA); format: physicochemical
In short: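 Lipid particles formed by micromixing ethanolic ionizable lipid/DSPC/cholesterol/DMG-PEG2000 (50/10/38.5/1.5 mol) with siRNA in pH 4 acetate buffer (3:1 water:oil), diluted with PBS and dialysed against PBS.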

[6] = Nucleic acid encapsulation rate of nucleic acid lipid particles (FVII-siRNA); format: physicochemical
In short: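 Total nucleic acid was measured by adding 30 μL of 3 mol/L sodium acetate and 9 μL of glycogen to 60 μL of FVII-siRNA lipid particles, then precipitating with 1.5 mL ethanol, centrifuging, air-drying, redissolving in water, and reading on a Nanodrop. Outer-phase nucleic acid came from a RiboGreen assay (ex 485 nm, em 535 nm) on samples diluted 10,000× in 1×TE. Encapsulation (%) = (total − outer)/total × 100.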

Row | Compound | Particle size (nm) [1] [nm] | Nucleic acid encapsulation rate [2] [%] | IC50 [3] [nM] | Particle size (nm) [5] [nm] | Nucleic acid encapsulation rate [6] [%] | Relative amount of FVII protein (%) [4] [%]
1 | CCCCCCCCC(=O)OCCN(CCOC(=O)OC(CCCCCC)CCCCCCCCC(=O)OCC(CCCC)CCCCCC)CCN(CC)CC (stereo not drawn) [Example 103, 2-Butyloctyl 3-ethyl-12-hexyl-6-(2-(nonanoyloxy)ethyl)-10-oxo-9,11-dioxa-3,6-diazahenicosan-21-oate] | 64.3 | 80 | 14 | 69.8 | 79 | 2
2 | CCCCC/C=C\C/C=C\CCCCCCCCC(CCCCCCCC/C=C\C/C=C\CCCCC)OC(=O)OCCN(C)CCN(CC)CC [Example 23, 2-((2-(Diethylamino)ethyl)(methyl)amino)ethyl((6Z,9Z,28Z,31Z)-heptatriaconta-6,9,28,31-tetraen-19-yl)carbonate] | 69.2 | 85 | 39 | 75.4 | 57 | 39
3 | CCCCCCC(CCCC)COC(=O)CCCCCCCCC(CCCCCCCCC(=O)OCC(CCCC)CCCCCC)OC(=O)OCCN(CC)CCN(CC)CC (stereo not drawn) [Example 72, Bis(2-butyloctyl)10-(((2-((2-(diethylamino)ethyl)(ethyl)amino)ethoxy)carbonyl)oxy)nonadecanedioate] | 74.2 | 81 | 31 | 72.4 | 85 | 6
4 | CCCCC/C=C\C/C=C\CCCCCCCC(=O)OCCCCCCC(CCCCCCOC(=O)CCCCCCC/C=C\C/C=C\CCCCC)OC(=O)OCCN(CC)CCN(CC)CC [Example 45, 7-(((2-((2-(Diethylamino)ethyl)(ethyl)amino)ethoxy)carbonyl)oxy)tridecane-1,13-diyl(9Z,9′Z,12Z,12′Z)-bis(octadeca-9,12-dienoate)] | 71.7 | 76 | 22 | 71.5 | 79 | 16
5 | CCCCCCCC/C=C\CCCCCCCC(=O)OCCN(CCOC(=O)OC(CCCCCC)CCCC(=O)OCC(CCCC)CCCCCC)CCN(CC)CC (stereo not drawn) [Example 119, 2-Butyloctyl 3-ethyl-12-hexyl-6-(2-(oleoyloxy)ethyl)-10-oxo-9,11-dioxa-3,6-diazahexadecan-16-oate] | 67.8 | 89 | 31 | 66.3 | 69 | 5
6 | CCCCCCCC/C=C\CCCCCCCC(=O)OCCCCCCC(CCCCCCOC(=O)CCCCCCC/C=C\CCCCCCCC)OC(=O)OCCN(CCCCCC)CCN(C)C [Example 43] | 74.5 | 78 | 19 | 75.3 | 87 | 11
7 | CCCC/C=C\CCCCCCCC(=O)OCCCCCCC(CCCCCCOC(=O)CCCCCCC/C=C\CCCC)OC(=O)OCCN(CC)CCN(CC)CC [Example 47, 7-(((2-((2-(Diethylamino)ethyl)(ethyl)amino)ethoxy)carbonyl)oxy)tridecane-1,13-diyl(9Z,9′Z)-bis(tetradec-9-enoate)] | 72.3 | 74 | 19 | 79.4 | 82 | 11
8 | CCCCCCCC/C=C\CCCCCCCC(=O)OCCN(CCCN(CC)CC)CCOC(=O)OC(CCCCCC)CCCCCCCCC(=O)OCC(CCCC)CCCCCC (stereo not drawn) [Example 93, 2-Butyloctyl 3-ethyl-13-hexyl-7-(2-(oleoyloxy)ethyl)-11-oxo-10,12-dioxa-3,7-diazadocosan-22-oate] | 70.4 | 70 | 22 | 67.8 | 73 | 7
9 | CCCCCCCCC(CCCCCC)COC(=O)CCCCCCCCC(CCCCCC)OC(=O)OCCN(CCOC(=O)CCCCC)CCN(CC)CC (stereo not drawn) [Example 100, 2-Hexyldecyl 3-ethyl-6-(2-(hexanoyloxy)ethyl)-12-hexyl-10-oxo-9,11-dioxa-3,6-diazahenicosan-21-oate] | 76.7 | 82 | 26 | 85.1 | 80 | 2
10 | CCCCCCCCCC(=O)OCCN(CCOC(=O)OC(CCCCCC)CCCCCCCCC(=O)OCC(CCCC)CCCCCC)CCN(CC)CC (stereo not drawn) [Example 87, 2-Butyloctyl 6-(2-(decanoyloxy)ethyl)-3-ethyl-12-hexyl-10-oxo-9,11-dioxa-3,6-diazahenicosan-21-oate] | 69.2 | 79 | 34 | 69.3 | 87 | 3

More lines, main results first:

Row | Particle size (nm) [1] [nm] | Nucleic acid encapsulation rate [2] [%] | IC50 [3] [nM] | Particle size (nm) [5] [nm] | Nucleic acid encapsulation rate [6] [%] | Compound | Relative amount of FVII protein (%) [4] [%]
11 | 70.7 | 97 | 37 | 84.5 | 91 | CCCCCCCCCCC(CCCCCCCCC(=O)OCC(CCCC)CCCCCC)OC(=O)OCCN(CC)CCN(CC)CC (stereo not drawn) [Example 68, 2-Butyloctyl 12-decyl-3,6-diethyl-10-oxo-9,11-dioxa-3,6-diazahenicosan-21-oate] | 9
12 | 63.9 | 93 | 42 | 70.5 | 88 | CCCCCCCCC(CCCCCC)COC(=O)CCCC(CCCCCC)OC(=O)OCCN(CCOC(=O)CCCCCCC)CCN(CC)CC (stereo not drawn) [Example 111, 2-Hexyldecyl 3-ethyl-12-hexyl-6-(2-(octanoyloxy)ethyl)-10-oxo-9,11-dioxa-3,6-diazahexadecan-16-oate] | 2
13 | 72.7 | 76 | 39 | 86.1 | 75 | CCCCCCCCC(CCCCCC)COC(=O)CCCCCCC(CCCCCC)OC(=O)OCCN(CCN(CC)CC)C(C)C (stereo not drawn) [Example 94, 2-Hexyldecyl 3-ethyl-12-hexyl-6-isopropyl-10-oxo-9,11-dioxa-3,6-diazanonadecan-19-oate] | 8
14 | 60.9 | 75 | 7 | 67.7 | 78 | CCCCCCCCCCCCC(CCCCCCCCC(=O)OCC(CCCC)CCCCCC)OC(=O)OCCN(CCN(CC)CC)C(C)C (stereo not drawn) [Example 61, 2-Butyloctyl 12-dodecyl-3-ethyl-6-isopropyl-10-oxo-9,11-dioxa-3,6-diazahenicosan-21-oate] | 8
15 | 67.8 | 82 | 21 | 66.1 | 100 | CCCCCCCCCCCCC(CCCCCCCCCC)COC(=O)CCCC(CCCCCC)OC(=O)OCCN(CCN(CC)CC)C(C)C (stereo not drawn) [Example 113, 2-Decyltetradecyl 3-ethyl-12-hexyl-6-isopropyl-10-oxo-9,11-dioxa-3,6-diazahexadecan-16-oate] | 4
16 | 70.2 | 63 | 41 | 76.4 | 58 | CCCCCCCC(=O)OCCN(CCOC(=O)OC(CCCCCC)CCCCCCCCC(=O)OCC(CCCCC)CCCCC)CCN(CC)CC (stereo not drawn) [Example 129, 2-Pentylheptyl 3-ethyl-12-hexyl-6-(2-(octanoyloxy)ethyl)-10-oxo-9,11-dioxa-3,6-diazahenicosan-21-oate] | 4
